Assay results: patent US9084766B2, “Compounds and compositions for targeting cancer stem cells” (Boston Biomedical, Inc., priority 2010, dated 2015)
Several values for one entry are separate records, joined by “and”; a condition that tells them apart may be missing. Equal entries are not always repeated. Where two headings read alike, the source gives them in different places.

What was measured:
[1] = Toxicity / body weight in tumor-bearing mice; format: in vivo
Experimental: All regimens were administered daily (qd). Body weights were evaluated periodically during treatment. Each point represents the mean±SEM of eight tumors. […] All regimens were administered daily (qd). Body weights were evaluated periodically during treatment. Each point represents the mean±SEM of eight tumors.
Daily examinations into the health status of each animal were also conducted. Body weights were checked every three days. Food and water was supplied daily according to the animal husbandry procedures of the facility. Treatment producing>20% lethality and or >20% net body weight loss were considered toxic. Results are expressed as mean tumor volume (mm^3)±SE. P Values<0.05 are considered to be statistically relevant.

[2] = Pharmacokinetics in mice of particle size formulations; format: in vivo; conditions: particle size 125-150 micron versus 2 and 20 micron, 100 mg/kg oral, 20% Gelucire 44/14 and 1% Tween 80
Experimental: In an experiment, micronized Compound 1 prepared in step 6 of Example 2 with a mean particle size of 2 micron, 20 microns, 150 microns were formulated as suspensions in 20% Gelucire 44/14 and 1% Tween 80 and administered orally to mice at 100 mg/kg. Each time point represents the average of 3 mice (FIG. 16).

[3] = Phase I clinical trial: plasma pharmacokinetics; format: in vivo, human; design: AUC0-24 hrs: concentration or dose not given beside the values; conditions: for AUC0-24 hrs: in µM·h
Experimental: A favorable PK profile with oral bid dosing was also observed. The plasma concentration reached several folds over efficacious concentration (in vitro IC50).
In yet another suitable dosing regimen, Compound 1 is administered with food which delays the Tmax (Table 13).

[4] = Compound concentration in patient urine; format: in vivo, human
[5] = system: PMBCs; assay: IC50 versus treatment time, PMBCs; format: cell-based; conditions: normal cells PMBCs
Experimental: (§1) The studies described herein discovered counter-intuitively that cancer cells and cancer stem cells requires much shorter exposure than normal cells to be killed by Compound 1. Normal cells can tolerate up to 24 hours of exposure to Compound 1. Furthermore, the studies here discovered that normal cells can recover after a short period of no-drug exposure, while cancer cells cannot recover once they are exposed to a certain concentration of the Compound 1 for at least 2 hours. Based on these studies, a special pharmacokinetic exposure [termed selective pharmacokinetic profile (SPP), or preferred pharmacokinetic profile (PPP), which is used interchangeably in this publication] was designed for Compound 1 using the data shown below in Table 14 for achieving selective antitumor activity in patients (FIG. 24).

[6] = system: DU145; assay: IC50 versus treatment time, DU145; format: cell-based; conditions: DU145 cancer cells
Experimental: as §1

[7] = system: HT29; assay: IC50 versus treatment time, HT29; format: cell-based; conditions: HT29 cancer cells
Experimental: as §1

[8] = system: cancer cells and normal cells; assay: Exposure time/concentration selectivity, cancer cells versus normal cells; format: cell-based
Experimental: as §1
Preferably, cancer cells must be exposed to a Compound of the Invention such as Compound 1, particles, polymorphs and/or purified forms thereof for 4 hours at concentration greater than 0.2 μM in order to induce cancer cell death. […] A reduced particle size of Compound 1 achieved this preferred pharmacokinetic pattern and selective activity.
The selective activity of Compound 1 in killing cancer cells and sparing normal cells is represented by the data in Table 14 and illustrated in FIG. 24.

[9] = previous studies; cited from earlier work

Structure (SMILES): CC(=O)c1cc2c(o1)C(=O)c1ccccc1C2=O [Compound 1, 2-acetyl-4H,9H-naphtho[2,3-b]furan-4,9-dione]
- mice died during the treatment ([1]; about 90% pure, FaDu experiment (upper panel)): 4 mice
- mice died during the treatment ([1]; about 90% pure, MDA-231 experiment (lower panel)): 3 mice
- toxicity ([1]; about 90% pure, in GELUCIRE, po qd, FaDu or MDA-231 bearing mice (FIG. 13)): Significant toxicity
- toxicity ([1]; composition of particle size less than 5 micron, mice): no observed toxicity
- tolerability / toxicity ([1]; higher purity (about 95% or greater), po qd, FaDu or MDA-231 bearing mice (FIG. 14)): well-tolerated and showed no signs of toxicity
- plasma exposure [2]: lower level of exposure
- clearance from blood ([3]; 20 mg QD (FIG. 21)): rapidly cleared from the blood
- time plasma concentration sustained at at least 1.5 μM ([3]; 320 mg/day dose level): over 8 hours
- plasma concentration sustained ([3]; 320 mg/day dose level, for over 8 hours): at least 1.5 μM
- Cmax ([3]; Fasting): 2550 nM
- AUC0-24 hrs ([3]; Fasting): 20.72
- pharmacokinetics (linearity) ([3]; doses through about 1000 mg/day): apparent linear pharmacokinetics
- AUC(0-t) ([3]; human, plasma, oral, 80 mg, total daily dose 80 mg, BID dosing, read-out: AUC0-24): 7.95 µM·h
- AUC(0-t) ([3]; human, plasma, oral, 160 mg, total daily dose 160 mg, BID dosing, read-out: AUC0-24): 9.52 µM·h
- AUC(0-t) ([3]; human, plasma, oral, 320 mg, total daily dose 320 mg, BID dosing, read-out: AUC0-24): 29.8 µM·h
- AUC(0-t) ([3]; human, plasma, oral, 400 mg, total daily dose 400 mg, BID dosing, read-out: AUC0-24): 53.6 µM·h
- AUC(0-t) ([3]; human, plasma, oral, 600 mg, total daily dose 600 mg, BID dosing, read-out: AUC0-24): 27.3 µM·h
- AUC(0-t) ([3]; human, plasma, oral, 800 mg, total daily dose 800 mg, BID dosing, read-out: AUC0-24): 26.4 µM·h
- AUC(0-t) ([3]; human, plasma, oral, 1000 mg, total daily dose 1000 mg, BID dosing, read-out: AUC0-24): 42.6 µM·h
- AUC(0-t) ([3]; human, plasma, oral, 1400 mg, total daily dose 1400 mg, BID dosing, read-out: AUC0-24): 28.4 µM·h
- AUC(0-t) ([3]; human, plasma, oral, 2000 mg, total daily dose 2000 mg, BID dosing, read-out: AUC0-24): 39.1 µM·h
- Cmax ([3]; human, plasma, oral, Fasting): 2010 nM
- AUC(0-t) ([3]; human, plasma, oral, Fasting, read-out: AUC0-24 hrs): 20.1 µM·h
- Tmax ([3]; human, plasma, oral, patient 20, Fasting): 2 h
- Tmax ([3]; human, plasma, oral, patient 20, With Food): 8 h
- Tmax ([3]; human, plasma, oral, patient 20, With Milk): 2 h
- Tmax ([3]; human, plasma, oral, patient 21, Fasting): 6 h
- Tmax ([3]; human, plasma, oral, patient 21, With Food): 6 h
- Tmax ([3]; human, plasma, oral, patient 21, With Milk): 6 h
- Tmax ([3]; human, plasma, oral, patient 22, Fasting): 8 h
- Tmax ([3]; human, plasma, oral, patient 22, With Food): 10 h
- Tmax ([3]; human, plasma, oral, patient 22, With Milk): 8 h
- Tmax ([3]; human, plasma, oral, patient 24, With Food): 10 h
- Tmax ([3]; human, plasma, oral, patient 24, With Milk): 6.3 h
- Tmax ([3]; human, plasma, oral, patient 27, With Food): 6 h
- Tmax ([3]; human, plasma, oral, patient 27, With Milk): 0.5 h
- Tmax ([3]; human, plasma, oral, patient 28, With Food): 10 h
- Tmax ([3]; human, plasma, oral, patient 28, With Milk): 6 h
- Cmax ([3]; human, plasma, oral, with Milk): 3050 nM
- AUC(0-t) ([3]; human, plasma, oral, with Milk, read-out: AUC0-24 hrs): 31.4 µM·h
- drug accumulation ([3]; repeated daily dosing every 28 days, doses through about 1000 mg/day): no evidence of drug accumulation
- Cmax ([3]; with Milk): 2890 nM
- AUC0-24 hrs Fold Change ([3]; with Milk versus Fasting): 1.56 and 1.55
- Cmax Fold Change ([3]; with Milk versus Fasting): 1.52 and 1.13
- AUC0-24 hrs ([3]; with Milk): 32.16
- BBI608 concentration in patient urine ([4]; patient 7, total daily dose 320 mg, 120-240 min post dose): 4.3 µM
- BBI608 concentration in patient urine ([4]; patient 7, total daily dose 320 mg, 360-480 min post dose): 23.1 µM
- BBI608 concentration in patient urine ([4]; patient 8, total daily dose 320 mg, 120-240 min post dose): 7.9 µM
- BBI608 concentration in patient urine ([4]; patient 8, total daily dose 320 mg, 360-480 min post dose): 1.8 µM
- BBI608 concentration in patient urine ([4]; patient 9, total daily dose 320 mg, 120-240 min post dose): 8.9 µM
- BBI608 concentration in patient urine ([4]; patient 9, total daily dose 320 mg, 360-480 min post dose): 23.6 µM
- BBI608 concentration in patient urine ([4]; patient 10, total daily dose 320 mg, 120-240 min post dose): 22.7 µM
- BBI608 concentration in patient urine ([4]; patient 10, total daily dose 320 mg, 360-480 min post dose): 26.2 µM
- BBI608 concentration in patient urine ([4]; patient 11, total daily dose 320 mg, 120-240 min post dose): 1.8 µM
- BBI608 concentration in patient urine ([4]; patient 11, total daily dose 320 mg, 360-480 min post dose): 4.5 µM
- BBI608 concentration in patient urine ([4]; patient 12, total daily dose 400 mg, 120-240 min post dose): 4.11 µM
- BBI608 concentration in patient urine ([4]; patient 12, total daily dose 400 mg, 360-480 min post dose): 3.86 µM
- BBI608 concentration in patient urine ([4]; patient 14, total daily dose 400 mg, 120-240 min post dose): 1.42 µM
- BBI608 concentration in patient urine ([4]; patient 14, total daily dose 400 mg, 360-480 min post dose): 5 µM
- BBI608 concentration in patient urine ([4]; patient 15, total daily dose 600 mg, 120-240 min post dose): 3.1 µM
- BBI608 concentration in patient urine ([4]; patient 15, total daily dose 600 mg, 360-480 min post dose): 10.65 µM
- BBI608 concentration in patient urine ([4]; patient 17, total daily dose 600 mg, 120-240 min post dose): 1.66 µM
- BBI608 concentration in patient urine ([4]; patient 17, total daily dose 600 mg, 360-480 min post dose): 45.35 µM
- BBI608 concentration in patient urine ([4]; patient 18, total daily dose 600 mg, 120-240 min post dose): 2.41 µM
- BBI608 concentration in patient urine ([4]; patient 18, total daily dose 600 mg, 360-480 min post dose): 6.3 µM
- BBI608 concentration in patient urine ([4]; patient 20, total daily dose 800 mg, 120-240 min post dose): 6.17 µM
- BBI608 concentration in patient urine ([4]; patient 20, total daily dose 800 mg, 360-480 min post dose): 118.25 µM
- BBI608 concentration in patient urine ([4]; patient 21, total daily dose 800 mg, 120-240 min post dose): 0.42 µM
- BBI608 concentration in patient urine ([4]; patient 21, total daily dose 800 mg, 360-480 min post dose): 7.42 µM
- BBI608 concentration in patient urine ([4]; patient 23, total daily dose 800 mg, 120-240 min post dose): 2.51 µM
- BBI608 concentration in patient urine ([4]; patient 23, total daily dose 800 mg, 360-480 min post dose): 11.97 µM
- IC50 ([5]; treatment time 12-24 h): 14000 nM
- IC50 ([5]; treatment time 72 h): 3000 nM
- IC50 ([6]; treatment time 12-24 h): < 200 nM
- IC50 ([6]; Homo sapiens, DU-145, treatment time 4-12 h): < 200 nM
- IC50 ([7]; treatment time 12-24 h): < 500 nM
- IC50 ([7]; Homo sapiens, HT-29, treatment time 4-12 h): < 500 nM
- selectivity ([8]; concentration greater than from about 0.5 to about 3 μM for less than 24 hours): selective activity in killing cancer cells and sparing normal cells
- selectivity ([8]; concentrations of about or above 0.2 and 30 μM for from about 4 hours up to about 24 hours): selective killing of cancer cells and sparing of normal cells
- killing of cancer cells ([8]; concentrations of less than 0.5 μM, regardless of exposure time): no killing of cancer cells
- selectivity ([8]; continuous exposure for greater than 24 hours): loss of selectivity
- exposure time tolerated by normal cells ([8]; normal cells): up to 24 hours
- antitumor activity in animal model [9]: no antitumor activity was observed
